Measurements taken from article PMC12481569, “Novltex: A New Class of Antibiotics with Potent Activity against Multidrug-Resistant Bacterial Pathogens–Design, Synthesis, and Biological Evaluation” (Journal of Medicinal Chemistry, 2025).
Converted amounts (≈) assume the structure as drawn. Positions of bridges follow the written chain, without caps; N, C: chain ends. Non-standard residues stand in square brackets, D forms with d. Residues, ends and D or L forms follow the SMILES beside them. dCha = N[C@H](CC1CCCCC1)C(=O)O

Legend:
[1] = system: human red blood cells (RBCs); experiment: Hemolysis assay; format: cell-based; details: 1 h, 37 °C, PBS pH 7.0, absorbance 576 nm, 4 donors in duplicate
Experimental: 4 Cytotoxicity evaluation of analogue 12. Human primary dermal fibroblasts (A), liver cell line HepG2 (B), and kidney cell line HEK293T (C) cells (5 × 10^3 cells/well in 96-well plates) were treated with increasing concentrations of analogue 12 or 1 μM staurosporine (STS, used as a positive toxicity control) for 24 or 48 h, as indicated. Viability of cells was determined using an MTS-based assay. Results (% cell viability) are the mean ± SD of three independent experiments performed in triplicate. (D) Freshly collected human red blood cells (RBCs) were exposed to increasing concentrations of 12 or Triton X-100 (TX), as indicated, for 1 h. Hemolytic activity (% hemolysis) was determined by spectrophotometrically measuring the release of hemoglobin compared to that with TX (used as a positive control). […]
day, cells were treated in triplicates with increasing concentrations of Novltex analogue 12, as indicated in the corresponding figure and the figure legend (Figure 4A-C). […] Cell viability assessed after 24 h or 48 h incubation using an MTS-based CellTiter 96® AQueous One Solution Cell Proliferation Assay (Promega #G3582, Southampton UK) as per manufacturer’s instructions. Absorbance was recorded at 490 nm. Relative cell viability was determined by subtracting the blank (cell culture medium and MTS only) from individual values before normalizing against the untreated control. […]

MRSA ATCC 33591 = experiment: microbe, parasite or virus in culture; format: cell-based, Staphylococcus aureus; details: Table 2; MHB with 0.002% polysorbate 80, 37 °C, 24 h, two independent duplicates
Experimental: MICs were performed as previously reported 4. For MIC testing all peptides were dissolved in DMSO.
Bacterial cultures were grown overnight on Mueller-Hinton Agar (MHA) plates and adjusted to a final inoculum of 10^5 – 10^6 CFU/mL. 100 µl of ino culum in Meuller -Hinton broth (MHB) was mixed with equal volume of peptides (dissolved in MHB) at 2x their concentration in a 96 well plate . For daptomycin MIC determination, the same protocol was followed with the addition of 50 mg/L calcium chloride to the medium. MIC values were determined in the media contain ing polysorbate 80 (0.002%, v/v) to prevent non -specific adsorption of the peptides to plastic surfaces. The final peptides concentrations ranged from 0.0625 – 32 µg/mL. The 96 well plates were then incubated at 37 °C for 24 h. All the experiments were performed in two independent duplicates and the MIC was determined as the lowest concentration in which no visible growth was observed. […]

Q: How did the “hemolysis of human erythrocytes” value ([1]; 62.5 μg/mL (125× MIC)) turn out when `CC(C)C[C@@H]1NC(=O)[C@H](C)NC(=O)[C@H](NC(=O)[C@H](CO)NC(=O)[C@@H](CCCCN)NC(=O)[C@@H](CC2CCCCC2)NC(=O)[C@@H](N)Cc2ccccc2)[C@H](C)OC(=O)[C@H](CC(C)C)NC1=O` [analogue 12, Leu2Cha–Novltex] (H-F[dCha][dK]S[dT]ALL; ester 5-C) was run?
A: low hemolysis

Q: And the “hemolysis of human erythrocytes” value ([1]; concentrations up to 31.2 μg/mL)?
A: no detectable hemolysis

Q: And the “MIC against MRSA ATCC 33591” value (MRSA ATCC 33591)?
A: 0.25 µg/mL (≈ 0.273 µM)
